In patent US7521418B2, “Use of a polyene macrolide antifungal agent in combination with a glycopeptide antibacterial agent” (Theravance, Inc., priority 2003, dated 2009):

Tested on: A. flavus ATCC 64025
Assay: Checkerboard MIC assay, FICI
Format: cell-based, Aspergillus flavus
Settings: combination with Compound 1
Text: The following assay was used to determine the minimum inhibitory concentration (MIC) and fractional inhibitory concentration index (FICI) for combinations of an antifungal agent and a glycopeptide antibacterial agent. This assay and methods for calculating FICI are well known in the art. See, for example, Eliopoulos, E. G. and R. Moellering, Jr. “Antimicrobial Combinations” in Antibiotics in Laboratory Medicine, edited by V. Lorian, 4th Ed., Williams & Wilkins, Baltimore, MD, pp. 330-396 (1996); […] et al., Antimicrobial Agents and Chemotherapy 47(4):1416-1418 (2003); or […] et al., Antimicrobial Agents and Chemotherapy 46(10):3323-3326 (2002). […] The MIC of the glycopeptide antibacterial agent determined from this experiment was used in FIC calculations. […]

SMILES	FICI
C[C@@H]1[C@H](O)[C@@H](C)/C=C/C=C/C=C/C=C/C=C/C=C/C=C/[C@H](O[C@@H]2O[C@H](C)[C@@H](O)[C@H](N)[C@@H]2O)C[C@@H]2O[C@](O)(C[C@@H](O)C[C@@H](O)[C@H](O)CC[C@@H](O)C[C@@H](O)CC(=O)O[C@H]1C)C[C@H](O)[C@H]2C(=O)O [Amphotericin B]	0.51
C[C@@H]1[C@H](O)[C@@H](C)/C=C/C=C/CC/C=C/C=C/C=C/C=C/C(O[C@H]2O[C@H](C)[C@@H](O)[C@H](N)[C@@H]2O)CC2O[C@](O)(CC(O)C(O)CCC(O)CC(O)CC(O)CC(=O)O[C@H]1C)CC(O)C2C(=O)O (some centres unmarked) [Nystatin]	0.51
